According to article PMC11124852 (Pharmaceutics, 2024):
≈ marks a conversion by molar mass, not a printed value. Where “and” joins values, the source holds several entries; their conditions need not be identical. Equal entries are not always repeated.

How the values were obtained:
[1] = molecular target: SARS-CoV-2 spike RBD to human ACE2 (Severe acute respiratory syndrome coronavirus 2, UniProt P0DTC2); experiment: biochemical; format: binding, SARS-CoV-2 / human; details: for IC50: IC50 (µM)
[2] = system: mouse macrophage cell line J774.2; experiment: In vitro cytotoxicity, MTT method; details: for SI: selectivity index CC50/IC50
Procedure: (§1) The mouse macrophage cell line J774.2 (ATCC® TIB-67) was used for the evaluation of the in vitro cytotoxicity. Cells were cultured in RPMI medium supplemented with 10% SFB, […], and glutamine (2 mM) at 37 °C and in an atmosphere of 5% CO2. The medium was changed at intervals of every 2 to 3 days. For the cytotoxicity assays, 1 × 10^6 cells were incubated with different concentrations of the compounds (0.78 to 200 µM) at 37 °C for 48 h in an atmosphere of 5% CO2. Cells in the presence of the maximum concentration of DMSO (0.2%) were included as a negative control. The metabolic activity of the cells was determined using the MTT method. The percentage of cell viability was calculated, and the mean cytotoxic concentration (CC50) was determined via a Probit analysis. Three independent assays were performed in triplicate each. Finally, the selectivity index (SI) was calculated using the following formula CC50/IC50.

[3] = In vitro cytotoxicity, MTT method; details: mouse, J774.2 macrophage cells, CC50 (µM), macrophage cell line J774.2, 48 h, MTT; means of three experiments
Procedure: as §1

rats = details: concentrations of 0.03, 0.3, and 3%; cited from earlier work
[4] = molecular target: S protein with the ACE2 host receptor; details: cell-free ELISA-type assay; cited from earlier work
meiobenthic nematodes = details: cited from earlier work
S protein = details: block the S protein and inhibit protein-mediated intercellular fusion; cited from earlier work
[5] = system: S protein and its host cell receptor ACE2; details: cited from earlier work
[6] = system: S protein and its host cell receptor ACE2; details: cited from earlier work; remark: listed apart in the source

| Compound | inhibition at 50 µM [1] | IC50 [1] | SI [2] | also measured |
| --- | --- | --- | --- | --- |
| O=C(Nc1ccc2c(O)c(/N=N/c3ccc(/N=N/c4ccc(S(=O)(=O)[O-])cc4)cc3)c(S(=O)(=O)[O-])cc2c1)c1ccccc1.[Na+].[Na+] [DRI-1, [Na+].[Na+].c1(/N=N/c2ccc(cc2)/N=N/c2c(cc3c(c2O)ccc(c3)NC(=O)c2ccccc2)S(=O)(=O)[O-])ccc(cc1)S(=O)(=O)[O-]] | 90.59 ± 0.54% | 13 ± 0.71 µM | 7.25 | CC50 ([2]; macrophage cell line J774.2, 48 h, MTT, means of three experiments): 94.5 ± 0.96 µM; CC50 at 48 h [3]: 94.5 µM |
| O=C(Nc1ccc2c(O)cc(S(=O)(=O)O)cc2c1)Nc1ccc2c(O)cc(S(=O)(=O)O)cc2c1 [DRI-2, c12c(ccc(c1)NC(=O)Nc1cc3c(cc1)c(cc(c3)S(=O)(=O)O)O)c(cc(c2)S(=O)(=O)O)O] | 90.8 ± 1.7% | 8.84 ± 4.3 µM | 22.6 and 22.62 | – |
| CCN(Cc1cccc(S(=O)(=O)O)c1)c1ccc(C(=C2C=CC(=[N+](CC)Cc3cccc(S(=O)(=O)O)c3)C=C2)c2ccccc2)cc1 [DRI-3, guinea green B] | 99.65 ± 0.25% | 2.14 ± 0.97 µM | 93.4 and 93.45 | toxicity in rats (rats): initial growth depression in rats, as well as the appearance of malignant tumors |
| CCOc1ccc(NS(=O)(=O)c2ccc(NC(=O)c3ccc(-c4ccccc4)cc3)cc2)cc1 [DRI-4, S(=O)(=O)(Nc1ccc(cc1)OCC)c1ccc(NC(=O)c2ccc(cc2)c2ccccc2)cc1] | 76.4 ± 1% | 24.6 ± 2.5 µM | 8.14 | CC50 at 48 h [3]: > 200 µM |
| CC(=O)Nc1ccc(OS(=O)(=O)c2ccc3c4c(cccc24)C(=O)N3)c2ccccc12 [DRI-5, CC(=O)Nc1ccc(OS(=O)(=O)c2ccc3NC(=O)c4cccc2c34)c2ccccc12] | 69.9 ± 1.2% | 13.7 ± 0.12 µM | 9.21 | CC50 at 48 h [3]: 126 ± 2.3 µM |
| O=C(Nc1ccc2cc(S(=O)(=O)O)cc(O)c2c1)c1ccc(-c2ccc(C(=O)Nc3ccc4cc(S(=O)(=O)O)cc(O)c4c3)cc2)cc1 [DRI-C91005] | – | – | – | IC50 [4]: 0.16 µM |
| C[C@]12CC[C@@H]3c4ccc(OC(=O)c5ccccc5)cc4CC[C@H]3[C@@H]1CC[C@@H]2O [estradiol benzoate] | – | – | – | concentration from which significant toxicity starts (meiobenthic nematodes): ≥ 4.3 pg/mL; IC50 (S protein): 1.02 µM |
| CCC(C)n1ncn(-c2ccc(N3CCN(c4ccc(OCC5COC(Cn6cncn6)(c6ccc(Cl)cc6Cl)O5)cc4)CC3)cc2)c1=O (stereo not drawn) [itraconazole] | – | – | – | IC50 (S protein): 0.45 µM |
| COc1ccc2c(O[C@@H]3C[C@H]4C(=O)N[C@]5(C(=O)NS(=O)(=O)C6CC6)C[C@H]5/C=C\CCCCN(C)C(=O)[C@@H]4C3)cc(-c3nc(C(C)C)cs3)nc2c1C [simeprevir] | – | – | – | Kd [5]: 0.812 µM |
| CS(=O)(=O)c1cccc(C[C@H](NC(=O)c2c(Cl)cc3c(c2Cl)CCN(C(=O)c2ccc4ccoc4c2)C3)C(=O)O)c1 [sodium lifitegrast] | – | – | – | Kd [5]: 0.00192 µM |
| CC1=C(C)C(=O)O[C@@H]([C@@H](C)[C@@]2(O)CC[C@H]3[C@@H]4[C@@H]5O[C@@H]5[C@@]5(O)CC=CC(=O)[C@]5(C)[C@H]4CC[C@@]32C)C1 [withanone] | – | – | – | IC50 [6]: 0.33 ng/mL (≈ 0.701 nM) |
